Test results as given in patent US6143875A, “Antibody to DNase involved in apoptosis” (priority 1994, dated 2000).
“And” between values parts separate entries of the source, which are not always exact repeats. Equal values may be shown once. Blank lines part the entries; values can stand above or below the molecule they belong to.

How the values were obtained:
[1] = test system: DNase β; assay: DNase (endonuclease) activity assay, HeLa S3 nuclei as substrate (Assay 1); assay type: biochemical, rat; details: for effect of divalent cation on DNase β activity: increasing concentrations of MgCl2 or CaCl2
Protocol: (§1) The activity of endonuclease (DNase) can be assayed by observing fragmentation of chromosomal DNA in the nucleus on 2% agarose gel electrophoresis using, as a substrate, the nucleus of HeLa S3 cell (human cervical carcinoma epithelial cell) which is completely free of endogenous endonuclease [Biochem. Biophys. Res. Commun. 194, (1993), pp, 30-31].
(§2) To be specific, a reaction mixture (30 μl) of HeLa S3 cells (1.67×10^7 /ml) and DNase fraction is incubated at 37° C. for 60 minutes and the reaction is stopped by cooling same on ice. Then, the reaction mixture after reaction is centrifuged at 20,000× g for 20 seconds, and the precipitated nuclei are dissolved in a lysis buffer [50 mM Tris-HCl (pH 7.8), 10 mM EDTA, 0.5% w/v N-lauronyl sarcosylate Na]. The obtained DNA is thoroughly treated with 0.5 mg/ml RNase A for 20 minutes and with 0.5 mg/ml proteinase K for 30 minutes, after which they are subjected to 2% agarose gel electrophoresis. […] The ratio of fragmentation (percent fragmentation) is calculated from the density of DNA fragments with a molecular weight of less than 5 kb.
(§3) As a suitable reaction solution for the assay of the activity of DNases α and β, 50 mM MES-NaOH (-pH 5.6) buffer containing 3 mM MgCl2, 1 mM 2-mercaptoethanol and 0.1 mM PMSF is used. As a suitable reaction solution for the assay of the activity of DNase γ, 50 mM MOPS-NaOH (pH 7.2) buffer containing 3 mM CaCl2, 3 mM MgCl2, 1 mM 2-mercaptoethanol and 0.1 mM PMSF is used.
(§4) Effects of divalent cations on the activity of DNase α, […] were examined. To be specific, the effect of Mg^2+ was examined by assaying the activity of purified DNases α, β and γ in the presence of 3 mM CaCl2 with increasing concentrations of MgCl2. The effect of Ca^2+ was examined by assaying the activity of DNases α, β and γ purified in the same manner, with increasing concentrations of CaCl2 in the presence of 3 mM MgCl2. The effect of Zn^2+ was examined in 50 mM […] (pH 5.6) buffer containing 3 mM MgCl2, 1 mM 2-mercaptoethanol and 0.1 mM PMSF with increasing concentrations of ZnCl2 with regard to DNases α and β, and it was examined in 50 mM MOPS-NaOH (pH 7.2) buffer containing 3 mM CaCl2, 3 mM MgCl2, 1 mM 2-mercaptoethanol and 0.1 mM PMSF, with increasing concentrations of ZnCl2 with regard to DNase γ. The results are shown in FIG. 8, FIG. 8B, and FIG. 8C. As a result, DNase γ required both Ca^2+ and Mg^2+ for full activity, wherein the optimal concentration of the both was 1-3 mM (FIG. 8A and FIG. 8B). DNase γ was sensitive to Zn^2+, and its activity was inhibited by 50% by Zn^2+ with a low concentration of 40 μM (FIG. 8c).
(§5) The activity of DNases α and β was calculated relative to the endonuclease activity which was assayed using HeLa S3 cell nuclear chromatin DNA as a substrate and 50 mM MES-NaOH (pH 5.6) buffer containing 3 mM MgCl2, 1 mM 2-mercaptoethanol and 0.1 mM PMSF as a reaction solution, and taken as 100%; and the activity of DNase γ was calculated relative to the endonuclease activity which was assayed using HeLa S3 cell nuclear chromatin DNA as a substrate and 50 mM MOPS-NaOH (pH 7.2) buffer containing 3 mM CaCl2, 3 mM MgCl2, 1 mM 2-mercaptoethanol and 0.1 mM PMSF as a reaction solution, and taken as 100%. In the Table, "-" means deletion of said components from the above-mentioned optimal reaction mixture and "+" means addition of said components to the above-mentioned optimal reaction mixture.

[2] = test system: DNase α; assay: as above; assay type: biochemical, rat; details: for effect of divalent cation on DNase α activity: increasing concentrations of MgCl2 or CaCl2
Protocol: as §1, §2, §3, §4, §5

[3] = target: T1, DNase γ (Rattus norvegicus, UniProt O89107); assay: as above; assay type: biochemical; details: for optimal concentration for full DNase γ activity: both Ca2+ and Mg2+ required, other cation at 3 mM; for DNase activity (%) γ: optimal mixture =100%
T1 sequence (O89107 26-310): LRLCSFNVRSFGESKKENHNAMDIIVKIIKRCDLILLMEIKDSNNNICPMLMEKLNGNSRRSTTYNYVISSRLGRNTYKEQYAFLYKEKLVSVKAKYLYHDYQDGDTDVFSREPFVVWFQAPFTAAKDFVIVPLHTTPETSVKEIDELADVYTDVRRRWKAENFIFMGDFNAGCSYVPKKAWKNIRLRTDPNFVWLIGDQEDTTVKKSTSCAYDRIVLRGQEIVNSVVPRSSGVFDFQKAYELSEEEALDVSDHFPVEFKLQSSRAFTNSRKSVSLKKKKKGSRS
Protocol: as §1, §2, §3, §4, §5

[4] = test system: HeLa S3 cell nuclear chromatin DNA; assay: Endonuclease activity of purified DNases in HeLa S3 nuclear assay system; assay type: biochemical, human
Protocol: as §1, §2, §3
The optimal pH for the activity of DNases α, β and γ was determined by assaying HeLa S3 nuclei in various buffers from acidic to basic (Reference Example 3, Assay 1) and calculating from the percentage of DNA fragmentation.
as §5

[5] = test system: DNA derived from HeLa S3 cell nuclei; assay: End labeling method, DNA cleavage mode; assay type: biochemical, human; details: 3' and 5' end labeling with/without alkaline phosphatase
[6] = +3 mM added to optimal reaction mixture (=100%)
[7] = +Zn2+ 0.1 mM, optimal mixture =100%
[8] = increasing ZnCl2 in pH 5.6 buffer, 3 mM MgCl2, read-out: Inhibition by Zn2+: IC50
[9] = up to the concentration of 1 mM
[10] = +Mn2+ 3 mM, -Mg2+/Ca2+, optimal mixture =100%
[11] = +aurintricarboxylate 30 μM, optimal mixture =100%
[12] = +aurintricarboxylate 100 μM, optimal mixture =100%

Molecule: [Ca+2].[Cl-].[Cl-] [Ca^2+]
DNase activity (%) β [1, 6]: 104%
effect of divalent cation on DNase β activity [1]: not influenced
DNase activity (%) α [2, 6]: 101%
effect of divalent cation on DNase α activity [2]: not influenced
optimal concentration for full DNase γ activity [3]: 1 to 3 mM

Molecule: [Mn+2] [Mn^2+]
DNase activity (%) β [1, 10]: 103%
DNase activity (%) α [2, 10]: 104%
DNase activity (%) γ ([3]; +Mn2+ 3 mM, -Mg2+/Ca2+): 45%

Molecule: O=C(O)C1=CC(=C(c2ccc(O)c(C(=O)O)c2)c2ccc(O)c(C(=O)O)c2)C=CC1=O [aurintricarboxylic acid]
DNase activity (%) β [1, 11]: 0%
DNase activity (%) β [1, 12]: 0%
inhibition of DNase β activity ([1]; at a concentration of 100 μM): completely inhibited
inhibition of DNase α activity [2]: completely inhibited
DNase activity (%) α [2, 11]: 32%
DNase activity (%) α [2, 12]: 0%
DNase activity (%) γ ([3]; +aurintricarboxylate 30 μM): 29%
DNase activity (%) γ ([3]; +aurintricarboxylate 100 μM): 0%
inhibition of DNase γ activity ([3]; at a concentration of 100 μM): completely inhibited

B1: DNase γ: novel endonuclease of rat cell nuclei cleaving linker sites of chromatin DNA; SEQ ID NO: 1, amino acids 26-310 (protein)
chain: LRLCSFNVRSFGESKKENHNAMDIIVKIIKRCDLILLMEIKDSNNNICPMLMEKLNGNSRRSTTYNYVISSRLGRNTYKEQYAFLYKEKLVSVKAKYLYHDYQDGDTDVFSREPFVVWFQAPFTAAKDFVIVPLHTTPETSVKEIDELADVYTDVRRRWKAEIFIFMGDFNAGCSYVPKKAWKNIRLRTDPNFVWLIGDQEDTTVKKSTSCAYDRIVVRGQEIVNSVVPRSSGVFDFQKAYELSEEEALDVSDHFPVEFKLQSSRAFTNSRKSVSLKKKKKGSRS
Divalent cation dependency [4]: Ca^2+ /Mg^2+, Mn^2+ dependent
DNase activity (%) ([4]; -2-mercaptoethanol (deleted from optimal reaction mixture =100%)): 96%
DNase activity (%) ([4]; -Ca2+ (deleted from optimal reaction mixture =100%)): 1%
DNase activity (%) ([4]; -Mg2+ (deleted from optimal reaction mixture =100%)): 16%
DNase activity (%) ([4]; -PMSF (deleted from optimal reaction mixture =100%)): 94%
DNA cleavage mode [5]: 3'-OH/5'-P termini and 3'--OH, 5'-P end forming type

More lines, now with the values ahead:

DNase activity (%) β [1, 7]: 93%
IC50 [1, 8]: ≥ 1000 µM
effect of Zn2+ on DNase β activity [1, 9]: not influenced
DNase activity (%) α [2, 7]: 90%
IC50 [2, 8]: ≥ 1000 µM
effect of Zn2+ on DNase α activity [2, 9]: not influenced
DNase activity (%) γ ([3]; +Zn2+ 0.1 mM): 21%
IC50 ([3]; increasing ZnCl2 in 50 mM MOPS-NaOH (pH 7.2), 3 mM CaCl2, 3 mM MgCl2, read-out: Inhibition by Zn2+: IC50): 40 µM
Molecule: [Cl-].[Cl-].[Zn+2] [Zn^2+]

DNase activity (%) β [1, 6]: 102%
effect of divalent cation on DNase β activity [1]: not influenced
DNase activity (%) α [2, 6]: 104%
effect of divalent cation on DNase α activity [2]: not influenced
optimal concentration for full DNase γ activity [3]: 1 to 3 mM
Molecule: [Cl-].[Cl-].[Mg+2] [Mg^2+]
